The results in this text go back to patent US9446043B2, “Pharmaceutical combinations” (Novartis AG, priority 2012, dated 2016).

The subject of experiment [1] is 92.1 uveal melanoma cell line. Nature of the experiment: Cell proliferation in combination dose matrix (Cell Titer Glo, Chalice). Particulars: 92.1 cells; for anti-proliferative response in dose matrix: 0.039 μM to 10 μM; for inhibition at 0.16 µM: Homo sapiens, 0.16 μM of each agent, 144 hours, Cell Titer Glo, read-out: growth inhibition (FIG. 2, top panel). The format is cell-based, human. On the procedure: Cells were seeded at a density of 3000 cells per 100 μl of medium per well in 96-well plates (Costar #3904) and incubated overnight prior to compound addition. Compound stock was freshly prepared in the appropriate culture medium and manually added to the plates by electronic multichannel pipette in three replicates. Cells were treated with compound alone or with a combination of AEB071 and COMPOUND B diluted 1:2 for a ten point dilution ranging from 0.039 μM to 10 μM. The viability of cells was assessed at the time of compound addition and after 144 hours of treatment by quantification of cellular ATP levels via Cell Titer Glo (Promega #G7571) according to the manufacturer's protocol. Plates were read on a luminescence plate reader (Victor X4, Perkin Elmer). Fractional inhibition of growth was calculated using XLfit and normalized to no compound wells. For growth inhibition, day 0 values were subtracted before calculating inhibition. Data was analyzed by Chalice software
(http://chalice.zalicus.com/documentation/analyzer/index.jsp) to calculate growth inhibition, inhibition and HSA excess.
FIG. 2 provides a closer look at the patterns of synergy between the two agents in the 92.1 cell line. The dose matrix between the two agents is shown; the effect on cell growth relative to untreated cells is shown in the top panel, the excess inhibition (HSA) in the center panel and the growth inhibition relative to day zero normalization is shown in the bottom panel. Methods of calculations for growth inhibition, inhibition and HSA excess are known in the art.
Inhibition and excess inhibition values for all dose combinations can be seen in FIG. 2. The growth rate of the cells during the […] assay was taken into account for the calculation of growth inhibition percent shown in FIG. 2, bottom panel. 100% indicated stasis, meaning the cells had neither grown nor died during the course of the assay, values in excess of 100 indicate death, 200 being complete cell death, and values below 100 indication growth from the start of the assay to the day 3 end point.
(In general: ATP-based viability assays read luminescence as a measure of living cells.)

The subject of experiment [2] is 92.1 human uveal melanoma xenograft (GNAQ mutation). Nature of the experiment: In vivo activity in the 92.1 human uveal melanoma nude mouse xenograft model. On the procedure:
NVP-AEB071 (also referred to as AEB071) (acetate salt, 87.96% free base) powder was added to 20% polyethyleneglycol 400 (PEG400): 4.5% 0.1M HCl: 75.5% of 5% dextrose in water (D5W), designated as Vehicle 1, and stirred to obtain a clear red solution. NVP-COMPOUND B (also referred to as COMPOUND B) was formulated as a homogenous suspension in 1% carboxymethyl cellulose: 0.5% Tween® 80 in deionized water. A fresh suspension was prepared once per week for each compound and stored at 4° C.
The animals were fed ad libitum water (reverse osmosis, 1 ppm Cl) and NIH 31 Modified and Irradiated Lab Diet® consisting of 18.0% crude protein, 5.0% crude fat, and 5.0% crude fiber. The mice were housed on irradiated Enrich-O'Cobs™ Laboratory Animal Bedding in static microisolators on a 12-hour light cycle at 20-22° C. (68-72° F.) and 40-60% humidity. DRS-NC specifically complies with the recommendations of the Guide for Care and Use of Laboratory Animals with respect to restraint, husbandry, surgical procedures, feed and fluid regulation, and veterinary care. The animal program at DRS-NC is accredited by the Association for Assessment and Accreditation of Laboratory Animal Care (AAALAC) International, which assures compliance with accepted standards for the care and use of laboratory animals.
The 92.1 uveal melanoma cells were harvested during exponential growth, and re-suspended in cold PBS (phosphate buffered saline) with 50% Matrigel™ (BD Biosciences). Each mouse was inoculated subcutaneously in the right flank with 5×10^6 cells (0.2 mL of cell suspension). Tumors were calipered in two dimensions to monitor growth as their mean volume approached the desired 100-150 mm^3 range. Tumor size, in mm^3, was calculated from: Tumor Volume=(w^2×l)/2 where w=width and l=length, in mm, of the tumor. Tumor weight could be estimated with the assumption that 1 mg was equivalent to 1 mm^3 of tumor volume. Twelve days after tumor cell implantation, on Day 1 (D1) of the study, animals with individual tumor volumes of 108-256 mm^3 were sorted into six groups (n=10/group) with group mean tumor volumes of 153-159 mm^3.
AEB071 was administered at 91 mg/kg three times daily (TID) dosing for 21 days. Efficacy was determined from tumor growth inhibition on day 17, the last day with all mice on the study. The activity was calculated at tumor/control (T/C), the percent mean tumor volume change from day 1 to day 17 in drug treated mice (ΔT) versus vehicle treated mice, or as a T/T0, the percent reduction in the group mean tumor volume from day 1. […] Addition of COMPOUND B dosed twice daily at 3.5 mg/kg to the AEB071 regimen yielded a −22% T−T0 (p<0.001 median activity, but not significant compared to AEB071 alone). COMPOUND B had no activity in its own right with a T/C of 84%.
Mice were dosed for 21 days, then treatment ceased and tumor outgrowth was monitored. […] Tumor growth delay was not calculated because two or more tumors per group became static after an initial growth period, but the trend of tumor outgrowth rate indicated the AEB071 plus COMPOUND B combination tumors grew out slower than AEB071 single agent, COMPOUND B single agent treated tumors were not monitored due to lack of efficacy.
The effectiveness of the combination increased in a dose dependent manner, with increasing AEB071 dose in combination with COMPOUND B yielding a greater magnitude of response. AEB071 was administered at […] and 22.74 mg/kg, (equivalent to 80, 40 and 20 mg/kg free base) with three times daily dosing (TID) for 21 days in combination with COMPOUND B at 3.5 mg/kg with twice daily dosing in the 92.1 human uveal melanoma nude mouse xenograft model. Efficacy was determined from tumor growth inhibition on day 22. The activity was calculated at tumor/control (T/C), the percent mean tumor volume change from day 1 to day 22 in drug treated mice (ΔT) versus vehicle treated mice, or as a T/T0, the percent reduction in the group mean tumor volume from day 1. […]
On the technique in general: In xenograft studies the graft and the host belong to different species.

For experiment [3], the system named is OMM1 uveal melanoma cell line (GNA11 mutation). Nature of the experiment: Proliferation measurement by xCELLigence. Particulars: OMM1 cells, 0.5 μM per compound, 6 days. The format is cell-based. On the procedure: (§1) 92.1 and OMM-1 uveal melanoma cell lines were cultured in Roswell Park Memorial Institute medium (RPMI 1640) (American Type Culture Collection (ATCC #30-2001)) supplemented with 10% fetal bovine serum and incubated at 37° C./5% carbon dioxide.
(§2) Compound stocks of 3-(1H-indol-3-yl)-4-[2-(4-methyl-piperazin-1-yl)-quinazolin-4-yl]-1H-pyrrole-2,5-dione, hereafter AEB071, and of 6-(4-bromo-2-fluorophenylamino)-7-fluoro-3-methyl-3H-benzoimidazole-5-carboxylic acid (2-hydroxyethoxy)-amide, hereafter COMPOUND B, were prepared in dimethylsulfoxide (DMSO) at a final concentration of 10 mM.
(§3) Growth of uveal cells was continuously monitored with the xCELLigence real-time cell analyzer. E-plates (Roche #05 232 368 001) were incubated with cells added at a final concentration of 3000 cells per 100 μl per well. Impedance was measured every 2 hours for 24 hours. […] Impedance was measured every 2 hours over 7 days. Data was normalized to day 0 prior to compound addition.
(§4) The effect of 3-(1H-indol-3-yl)-4-[2-(4-methyl-piperazin-1-yl)-quinazolin-4-yl]-1H-pyrrole-2,5-dione (COMPOUND A) and 6-(4-bromo-2-fluorophenylamino)-7-fluoro-3-methyl-3H-benzoimidazole-5-carboxylic acid (2-hydroxyethoxy)-amide (COMPOUND B) on uveal melanoma proliferation in vitro is shown (FIG. 1).

For experiment [4], the system named is 92.1 uveal melanoma cell line (GNAQ mutation). Nature of the experiment: Proliferation measurement by xCELLigence. The conditions noted are these: 92.1 cells, 0.5 μM per compound, 6 days. The class given is cell-based, human. On the procedure:
as §1, §2, §3, §4

In a further experiment the test system is pMARCKS. Nature of the experiment: Protein immunoblot following drug treatment of uveal melanoma cell lines. The format is cell-based, human. Particulars: 92.1 and OMM-1 cells, 0.5 μM per agent, 2-48 hours. On the procedure:
Uveal melanoma cells were incubated with 0.5 μM AEB071, 0.5 μM COMPOUND B, both compounds or DMSO alone. Cells were lysed after 2, 4, 8, 24 or 48 hours of treatment in M-PER mammalian protein extraction buffer containing PhosStop Phosphatase inhibitor cocktail tablet (Roche Diagnostics #04 906 837 001) and Complete Protease Inhibitor cocktail tablet (Roche Diagnostics #11 836 145 001). Proteins were separated on a 4-12% Bis-Tris NuPAGE SDS gel (Invitrogen #WG1403Bx10) and subsequently transferred to a nitrocellulose membrane using a dry blotting system (Invitrogen iBLOT). Proteins were detected with 1:1000 dilutions of anti-p44/42 MAPK (Cell Signaling Technologies #4377), anti-pMARCKS (Cell Signaling Technologies #2741), anti-pMEK1/2 (Cell Signaling Technologies #9121) and anti-Beta Actin (Ambion#AM4202). Beta actin was detected using the appropriate secondary antibody and an infrared dye detection system (Odyssey IRDye, LI-COR) according to the manufacturer's protocol. All other proteins were detected using an anti-rabbit-HRP secondary antibody and developed with SuperSignal West Dura Chemiluminescent Substrate (Thermo Scientific #34076) on a Syngene imaging system. The biochemical effect of these agents was assessed following treatment with 0.5 μM AEBO071, 0.5 μM COMPOUND B or 0.5 μM of each agent together in the uveal melanoma cell lines 92.1 and OMM-1. […]

Another experiment relates to pERK1/2. The description is as above. The format is cell-based, human. The conditions noted are these: 92.1 and OMM-1 cells. On the procedure:
(§5) Uveal melanoma cells were incubated with 0.5 μM AEB071, 0.5 μM COMPOUND B, both compounds or DMSO alone. Cells were lysed after 2, 4, 8, 24 or 48 hours of treatment in M-PER mammalian protein extraction buffer containing PhosStop Phosphatase inhibitor cocktail tablet (Roche Diagnostics #04 906 837 001) and Complete Protease Inhibitor cocktail tablet (Roche Diagnostics #11 836 145 001). Proteins were separated on a 4-12% Bis-Tris NuPAGE SDS gel (Invitrogen #WG1403Bx10) and subsequently transferred to a nitrocellulose membrane using a dry blotting system (Invitrogen iBLOT). Proteins were detected with 1:1000 dilutions of anti-p44/42 MAPK (Cell Signaling Technologies #4377), anti-pMARCKS (Cell Signaling Technologies #2741), anti-pMEK1/2 (Cell Signaling Technologies #9121) and anti-Beta Actin (Ambion#AM4202). Beta actin was detected using the appropriate secondary antibody and an infrared dye detection system (Odyssey IRDye, LI-COR) according to the manufacturer's protocol. All other proteins were detected using an anti-rabbit-HRP secondary antibody and developed with SuperSignal West Dura Chemiluminescent Substrate (Thermo Scientific #34076) on a Syngene imaging system.
(§6) The biochemical effect of these agents was assessed following treatment with 0.5 μM AEBO071, 0.5 μM COMPOUND B or 0.5 μM of each agent together in the uveal melanoma cell lines 92.1 and OMM-1. The level of pMARCKS was attenuated (FIG. 3). […] The combination of AEB071 and COMPOUND B suppressed pathway components to a greater magnitude and duration compared to either single agent.

Another experiment relates to pMEK1/2. The experiment is described as above. The conditions noted are these: 92.1 and OMM-1 cells, 0.5 μM per agent, over time, clearly observed at 48 hours. The class given is cell-based, human. On the procedure:
as §5, §6

By inhibition is commonly meant the change of the read-out against control, counted positive when it falls. Regarding `CN1CCN(c2nc(C3=C(c4c[nH]c5ccccc45)C(=O)NC3=O)c3ccccc3n2)CC1` [AEB071, 3-(1H-indol-3-yl)-4-[2-(4-methyl-piperazin-1-yl)-quinazolin-4-yl]-1H-pyrrole-2,5-dione], in experiment [1], the “anti-proliferative response in dose matrix” value is “active”. Besides, in experiment [1], the inhibition at 0.16 µM turned out to be 19%. Moreover, the “mean tumor response during the dosing period” value in experiment [2] (21 days dosing (FIG. 5)) is on record as “near complete mean tumor stasis”. For the same molecule, the “T/C (tumor/control)” value came to 92% in experiment [2] (AEB071 22.7 mg/kg (20 mg/kg free base) TID for 21 days, day 22, non-significant); 52% in experiment [2] (AEB071 45.5 mg/kg (40 mg/kg free base) TID for 21 days, day 22, non-significant); 18% in experiment [2] (AEB071 90.95 mg/kg (80 mg/kg free base) TID for 21 days, day 22, p<0.05); 3% in experiment [2] (AEB071 (acetate salt) 91 mg/kg TID for 21 days, day 17, p<0.01). Also, the “tumor progression after the dosing period” value in experiment [2] (two weeks following the 21 day dosing period, followed >70 days (FIG. 5)) was “progressed at the control pace”. Also, the “effect on growth of uveal melanoma cell line (xCELLigence)” value in experiment [3] and in experiment [4] was “delayed cell growth” throughout. In addition, in the experiment on pMARCKS, the “level of pMARCKS” value is reported as “attenuated”.
As to `Cn1cnc2c(F)c(Nc3ccc(Br)cc3F)c(C(=O)NOCCO)cc21` [COMPOUND B, 6-(4-bromo-2-fluorophenylamino)-7-fluoro-3-methyl-3H-benzoimidazole-5-carboxylic acid (2-hydroxyethoxy)-amide], in experiment [1], the “anti-proliferative response in dose matrix” value is recorded as “active”. Also, in experiment [1], the inhibition at 0.16 µM is 57%. In the experiment with pERK1/2 (0.5 μM per agent, seen at 2 hrs, time course 2-48 hours), the pERK1/2 levels entry is listed as “reduction in pERK1/2 levels”. Besides, the “pERK1/2 expression by 24 hours” value in the experiment on pERK1/2 (0.5 μM, 24 hours) is reported as “beginning to return”. Also, the pMEK1/2 expression entry with pMEK1/2 is listed as “induction of pMEK1/2 expression”. Moreover, the “T/C (tumor/control)” value in experiment [2] (COMPOUND B 3.5 mg/kg twice daily, day 17) turned out to be 84%; in experiment [2] (COMPOUND B 3.5 mg/kg twice daily, day 22) it was 56%. In addition, the “effect on growth of uveal melanoma cell line (xCELLigence)” value in experiment [3] and in experiment [4] was “modest effect” each time.
